Experimental data taken from ChEMBL document CHEMBL2385071, “Synthesis and biological investigation of coumarin piperazine (piperidine) derivatives as potential multireceptor atypical antipsychotics” (J Med Chem, 2013).
pIC50: −log10 of the molar value.

Legend:
[1] = Oral bioavailability in rat at 12 mg/kg by HPLC-MS analysis; type: ADME, organism-based; details: in vivo
[2] = AUC (0 to infinity) in rat at 5 mg/kg, iv by HPLC-MS analysis; type: ADME, organism-based; set-up: time infinity, dose 5 mg/kg, route intravenous; details: plasma
[3] = Half life in rat at 5 mg/kg, iv by HPLC-MS analysis; type: ADME, organism-based; set-up: dose 5 mg/kg, route intravenous; details: in vivo
[4] = Half life in rat at 12 mg/kg, po by HPLC-MS analysis; type: ADME, organism-based; set-up: dose 12 mg/kg, route oral; details: in vivo
[5] = Cmax in rat at 12 mg/kg, po by HPLC-MS analysis; type: ADME, organism-based; set-up: dose 12 mg/kg, route oral; details: in vivo
[6] = Tmax in rat at 12 mg/kg, po by HPLC-MS analysis; type: ADME, organism-based; set-up: dose 12 mg/kg, route oral; details: in vivo
Mus musculus [7] = test: Toxicity in mouse assessed as effect on serum prolactin level at 0.3 to 2.7 mg/kg, po for 28 days measured 180 mins after last treatment by enzyme immunoassay; type: organism-based; set-up: dose 0.3-2.7 mg/kg, route oral; details: in vivo, 3 h
[8] = biological target: T1, 5-hydroxytryptamine receptor 2A (Homo sapiens, UniProt P28223); test: Antagonist activity at 5HT2A receptor (unknown origin) expressed in CHOK1 cells coexpressing Galpha15 assessed as inhibition of agonist-induced response at 10 uM incubated for 60 mins in incubator followed by 15 mins at room temperature by FLIPR assay relative to control; type: cell-based; details: CHO-K1
T1 sequence (P28223 whole entry): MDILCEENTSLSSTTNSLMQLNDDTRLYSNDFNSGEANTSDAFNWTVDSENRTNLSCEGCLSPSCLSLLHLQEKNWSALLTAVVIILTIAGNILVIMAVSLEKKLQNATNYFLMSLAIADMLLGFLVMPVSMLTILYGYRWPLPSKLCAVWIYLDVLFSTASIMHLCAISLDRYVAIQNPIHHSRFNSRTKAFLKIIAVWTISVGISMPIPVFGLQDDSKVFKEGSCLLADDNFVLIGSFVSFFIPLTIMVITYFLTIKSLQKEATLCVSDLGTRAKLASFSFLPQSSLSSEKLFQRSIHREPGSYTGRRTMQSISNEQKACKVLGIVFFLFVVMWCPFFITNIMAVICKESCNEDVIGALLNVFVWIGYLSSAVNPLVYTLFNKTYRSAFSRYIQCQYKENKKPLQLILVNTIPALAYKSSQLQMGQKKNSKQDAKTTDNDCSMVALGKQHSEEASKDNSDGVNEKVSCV

[9] = biological target: T1, 5-hydroxytryptamine receptor 2A; test: Agonist activity at 5HT2A receptor (unknown origin) expressed in CHOK1 cells coexpressing Galpha15 at 10 uM by FLIPR assay relative to control; type: cell-based; details: CHO-K1
[10] = biological target: T2, 5-hydroxytryptamine receptor 1A (Homo sapiens) (UniProt P08908); test: Agonist activity at 5HT1A receptor (unknown origin) expressed in CHOK1 cells coexpressing Galpha15 at 10 uM by FLIPR assay relative to control; type: cell-based; details: CHO-K1
T2 sequence (whole entry): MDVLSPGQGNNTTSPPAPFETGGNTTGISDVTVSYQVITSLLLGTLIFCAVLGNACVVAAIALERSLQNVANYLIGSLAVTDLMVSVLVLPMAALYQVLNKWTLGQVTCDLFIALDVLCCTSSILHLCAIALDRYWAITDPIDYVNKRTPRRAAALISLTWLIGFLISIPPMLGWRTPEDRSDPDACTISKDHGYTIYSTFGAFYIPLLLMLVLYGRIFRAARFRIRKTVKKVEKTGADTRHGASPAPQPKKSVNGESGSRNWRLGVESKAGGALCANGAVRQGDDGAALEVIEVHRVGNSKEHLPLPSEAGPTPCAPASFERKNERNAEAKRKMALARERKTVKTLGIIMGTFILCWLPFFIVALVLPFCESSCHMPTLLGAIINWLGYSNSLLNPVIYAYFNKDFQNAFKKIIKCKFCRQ

[11] = biological target: T1, 5-hydroxytryptamine receptor 2A
Description: Antagonist activity at 5HT2A receptor (unknown origin) expressed in CHOK1 cells coexpressing Galpha15 assessed as inhibition of agonist-induced response incubated for 60 mins in incubator followed by 15 mins at room temperature by FLIPR assay

D(3) dopamine receptor = D(3) dopamine receptor (Homo sapiens, UniProt P35462)
Chain of D(3) dopamine receptor (P35462 whole entry): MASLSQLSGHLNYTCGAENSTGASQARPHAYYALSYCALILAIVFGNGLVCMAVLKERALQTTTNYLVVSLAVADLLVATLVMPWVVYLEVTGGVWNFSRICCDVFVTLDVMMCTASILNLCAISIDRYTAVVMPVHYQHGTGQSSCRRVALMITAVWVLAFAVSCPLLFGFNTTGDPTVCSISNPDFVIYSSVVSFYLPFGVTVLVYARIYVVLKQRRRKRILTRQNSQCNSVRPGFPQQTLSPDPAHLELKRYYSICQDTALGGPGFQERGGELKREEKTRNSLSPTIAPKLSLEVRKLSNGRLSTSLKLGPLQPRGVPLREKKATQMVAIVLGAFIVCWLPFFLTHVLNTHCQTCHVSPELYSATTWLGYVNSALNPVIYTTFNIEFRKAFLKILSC

D(2) dopamine receptor = D(2) dopamine receptor (Homo sapiens, UniProt P14416)
Chain of D(2) dopamine receptor (P14416 whole entry): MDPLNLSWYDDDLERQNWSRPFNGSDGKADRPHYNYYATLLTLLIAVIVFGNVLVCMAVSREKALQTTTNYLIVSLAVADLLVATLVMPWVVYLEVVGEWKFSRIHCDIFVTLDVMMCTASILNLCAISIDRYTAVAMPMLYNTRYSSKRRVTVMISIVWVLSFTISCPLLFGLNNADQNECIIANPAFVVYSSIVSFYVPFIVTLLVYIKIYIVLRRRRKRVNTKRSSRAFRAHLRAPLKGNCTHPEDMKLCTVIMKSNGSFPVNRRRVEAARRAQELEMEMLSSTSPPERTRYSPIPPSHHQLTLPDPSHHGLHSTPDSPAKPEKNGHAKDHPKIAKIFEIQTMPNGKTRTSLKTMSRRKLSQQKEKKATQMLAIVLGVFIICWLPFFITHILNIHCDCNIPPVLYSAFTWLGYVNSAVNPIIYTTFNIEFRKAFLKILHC

Mus musculus [12] = organism: Mus musculus; test: animal or person; details: po
Description: (§1) Antipsychotic activity in po dosed mouse assessed as reduction in apomorphine-induced climbing behavior administered for 30 mins prior to apomorphine-challenge measured at 10 to 30 mins post-dose

Mus musculus [13] = tested on: Mus musculus
Mus musculus [14] = tested on: Mus musculus; remark: listed apart in the source
Description: as §1

Cc1cc(=O)oc2c(Cl)c(OCCCCN3CCC(c4noc5cc(F)ccc45)CC3)ccc12
bioavailability [1]: 32% | AUC(0-inf) [2]: 914 ng·h/mL | half-life [3]: 5 h | half-life [4]: 6.7 h | Cmax [5]: 72.1 ng/mL | Tmax [6]: 3 h | Activity (Mus musculus [7]): Non-toxic | inhibition [8]: 99.1% | Activity [9]: 10% | Activity [10]: 9.9% | pIC50 [11]: 7.41 | pIC50 (D(3) dopamine receptor): 7.61 | pIC50 (D(2) dopamine receptor): 7.58 | ED50 (Mus musculus [12]): 0.14 mg/kg | Activity (Mus musculus [13]): Dose-dependent effect | Activity (Mus musculus [14]): Dose-dependent effect
